The subject of data set [1] is Nakaseomyces glabratus. The data set is described as follows: Antifungal activity against Candida glabrata isolated from candidemia patient after 48 hrs. It counts as functional.
For data set [2], the system named is Nakaseomyces glabratus. The data set is described as follows: Reduction of kidney fungal burden in Candida glabrata infected ip dosed neutropenic Swiss Webster mouse. Format: functional.
Data set [3] concerns Nakaseomyces glabratus. The data set is described as follows: Reduction of lung fungal burden in Candida glabrata infected ip dosed neutropenic Swiss Webster mouse. Format: functional.
Data set [4] concerns Nakaseomyces glabratus. The data set is described as follows: Reduction of spleen fungal burden in Candida glabrata infected ip dosed neutropenic Swiss Webster mouse. It counts as functional.
The test system of data set [5] is Nakaseomyces glabratus. The data set is described as follows: Reduction of kidney fungal burden in Candida glabrata infected neutropenic Swiss Webster mouse at >=50 mg/kg, ip after 7 days. Format: functional, organism-based.
Data set [6] is described as follows: Serum clearance in Candida glabrata infected neutropenic Swiss Webster mouse. It counts as ADME, organism-based.
In data set [7] the test system is Nakaseomyces glabratus. The data set is described as follows: Reduction of fungal burden in Candida glabrata infected neutropenic Swiss Webster mouse at 100 mg/kg, ip after 7 days. Format: functional, organism-based. On the set-up: dose 100 mg/kg.
Data set [8] concerns Nakaseomyces glabratus. Kind of data set: Antifungal activity against Candida glabrata isolated from candidemia patient after 24 hrs. Format: functional.

Experimental findings from ChEMBL document CHEMBL1142085, “Once-weekly micafungin therapy is as effective as daily therapy for disseminated candidiasis in mice with persistent neutropenia” (Antimicrob Agents Chemother, 2007) are described below.

As usually defined, the MIC is the lowest concentration found to suppress growth. By ED50 is commonly meant the dose at which the effect has come halfway, by size or by number of responders. What is called clearance is a measure of how efficiently the substance is removed, as volume per time. The low end stands for a low capacity for elimination, the high end for a high capacity for elimination.

≈ marks a conversion by molar mass, not a printed value. Calls of active or inactive are those of the source. The rule behind the calls is not given here. *1 amine or outer side, *2 acyl side, *3 side chain or, on linkers, in order; H or OH if unused. Where a SMILES comes first, the peptide text is derived from it. Bridges are numbered along the chain shown (N, C = ends). [ ]: non-standard residue; d: D form. The star is where a group is joined. hTyr(3S-OH,4S-OH,3'-OSO3H) = N[C@H](C(=O)O)[C@H](O)[C@@H](O)c1ccc(O)c(OS(=O)(=O)O)c1; Orn(4R-OH,5R-OH) = O=C([C@H](C[C@@H](O)[C@@H](O)N[*:3])N[*:1])[*:2]; Pro(3S-OH,4S-Me) = C[C@H]1CN[C@H](C(=O)O)[C@H]1O; X1 = CCCCCOc1ccc(-c2cc(-c3ccc(C(=O)*)cc3)no2)cc1; Gln(3R-OH) = NC(=O)C[C@@H](O)[C@H](N)C(=O)O; Hyp = O=C(O)[C@@H]1C[C@@H](O)CN1

`CCCCCOc1ccc(-c2cc(-c3ccc(C(=O)N[C@H]4C[C@@H](O)[C@@H](O)NC(=O)[C@@H]5[C@@H](O)[C@@H](C)CN5C(=O)[C@H]([C@H](O)CC(N)=O)NC(=O)[C@H]([C@H](O)[C@@H](O)c5ccc(O)c(OS(=O)(=O)O)c5)NC(=O)[C@@H]5C[C@@H](O)CN5C(=O)[C@H]([C@@H](C)O)NC4=O)cc3)no2)cc1` [MICAFUNGIN] (X1-[Orn(4R-OH,5R-OH)]T[Hyp][hTyr(3S-OH,4S-OH,3'-OSO3H)][Gln(3R-OH)][Pro(3S-OH,4S-Me)]; lactam 1-C): the MIC against Nakaseomyces glabratus [1] and against Nakaseomyces glabratus [8] was 0.02 µg/mL (≈ 0.0157 µM) throughout. The ED50 came to 14.7 mg/kg with Nakaseomyces glabratus [2], 17.3 mg/kg in the data set on Nakaseomyces glabratus [3] and 7.38 mg/kg in the data set with Nakaseomyces glabratus [4]. Besides, the result in the data set on Nakaseomyces glabratus [5] and in the data set on Nakaseomyces glabratus [7] was Active. Besides, in data set [6], the clearance is 0.0133 mL/min.
